Measurements reported in ChEMBL document CHEMBL1921749, “5-Lipoxygenase-activating protein (FLAP) inhibitors. Part 4: development of 3-[3-tert-butylsulfanyl-1-[4-(6-ethoxypyridin-3-yl)benzyl]-5-(5-methylpyridin-2-ylmethoxy)-1H-indol-2-yl]-2,2-dimethylpropionic acid (AM803), a potent, oral, once daily FLAP inhibitor” (J Med Chem, 2011).

Assays:
[1] = target: T1, Arachidonate 5-lipoxygenase-activating protein (Homo sapiens, UniProt P20292); assay: Displacement of [3H]-3-[5-(pyrid-2-ylmethoxy)-3-tert-butylthio-1-benzylindol-2-yl]-2,2-dimethylpropionic acid from FLAP in human polymorphonuclear cell membranes after 1 hr by scintillation counting
T1 sequence (P20292 whole entry): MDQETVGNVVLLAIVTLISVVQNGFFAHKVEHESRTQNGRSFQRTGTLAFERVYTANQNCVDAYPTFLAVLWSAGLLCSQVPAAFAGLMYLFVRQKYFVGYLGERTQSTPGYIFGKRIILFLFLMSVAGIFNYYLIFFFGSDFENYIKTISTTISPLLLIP

[2] = target: T1, Arachidonate 5-lipoxygenase-activating protein; assay: Inhibition of FLAP in human peripheral leukocytes assessed as inhibition of calcium ionophore A23187-induced LTB4 production after 10 mins by ELISA; type: cell-based
[3] = target: T1, Arachidonate 5-lipoxygenase-activating protein; assay: Inhibition of FLAP in human whole blood assessed as inhibition of calcium ionophore A23187-induced LTB4 production preincubated for 15 mins by ELISA
[4] = target: T1, Arachidonate 5-lipoxygenase-activating protein; assay: Inhibition of FLAP in human whole blood assessed as inhibition of calcium ionophore A23187-induced LTB4 production preincubated for 5 hrs by ELISA

Row | Compound | IC50 [1] [nM] | IC50 [2] [nM] | IC50 [3] [nM] | IC50 [4] [nM]
1 | CCOc1ccc(-c2ccc(Cn3c(CC(C)(C)C(=O)O)c(C(=O)Cc4ccccc4)c4cc(OCc5ccc(C)cn5)ccc43)cc2)cn1 | 22500 | 64 | 32600 | –
2 | COc1ccc(-c2ccc(Cn3c(CC(C)(C)C(=O)O)c(SC(C)(C)C)c4cc(OCc5cc(C)on5)ccc43)cc2)cn1 | 114 | 2.4 | 2420 | –
3 | Cc1ccc(COc2ccc3c(c2)c(SC(C)(C)C)c(CC(C)(C)C(=O)O)n3Cc2ccc(-c3ccc(C(F)(F)F)nc3)cc2)nc1 | 3.2 | 0.4 | 401 | 180
4 | COc1ccc(COc2ccc3c(c2)c(SC(C)(C)C)c(CC(C)(C)C(=O)O)n3Cc2ccc(-c3ccc(OC)nc3)cc2)nc1 | 8 | 0.7 | 688 | 652
5 | COc1ccc(-c2ccc(Cn3c(CC(C)(C)C(=O)O)c(SC(C)(C)C)c4cc(OCc5cnc(C)cn5)ccc43)cc2)cn1 | 5.4 | 3.3 | 208 | 281
6 | COc1ccc(-c2ccc(Cn3c(CC(C)(C)C(=O)O)c(SC(C)(C)C)c4cc(OCc5cc(C)n(C)n5)ccc43)cc2)cn1 | 1600 | 26.8 | 26300 | –
7 | CCOc1ccc(-c2ccc(Cn3c(CC(C)(C)C(=O)O)c([S+]([O-])C(C)(C)C)c4cc(OCc5ccc(C)cn5)ccc43)cc2)cn1 (racemic) | 559 | 253 | 33200 | –
8 | CCOc1ccc(-c2ccc(Cn3c(CC(C)(C)C(=O)O)cc4cc(OCc5ccc(C)cn5)ccc43)cc2)cn1 | 219 | 22.6 | 22300 | –
9 | Cc1ccc(COc2ccc3c(c2)c(SC(C)(C)C)c(CC(C)(C)C(=O)O)n3Cc2ccc(-c3ccc(C(F)(F)F)cn3)cc2)nc1 | 2.7 | 0.5 | 435 | 202
10 | COc1ccc(-c2ccc(Cn3c(CC(C)(C)C(=O)O)c(SC(C)(C)C)c4cc(OCc5ccc6cc(C)ccc6n5)ccc43)cc2)cn1 | 148 | 1.7 | 3880 | –
11 | COc1ccc(-c2ccc(Cn3c(CC(C)(C)C(=O)O)c(SC(C)(C)C)c4cc(OCc5ccc(C)c(C)n5)ccc43)cc2)cn1 | 3.4 | 0.6 | 570 | 225
12 | COc1cccnc1-c1ccc(Cn2c(CC(C)(C)C(=O)O)c(SC(C)(C)C)c3cc(OCc4ccc(C)cn4)ccc32)cc1 | 4.6 | 0.8 | 1460 | –
13 | COc1ccc(-c2ccc(Cn3c(CC(C)(C)C(=O)O)c(SC(C)(C)C)c4cc(OCc5cc6ccccc6[nH]5)ccc43)cc2)cn1 | 1250 | 11.1 | 11800 | –
14 | COc1ccc(-c2ccc(Cn3c(CC(C)(C)C(=O)O)c(SC(C)(C)C)c4cc(OCc5ccc6ccc(F)cc6n5)ccc43)cc2)cn1 | 327 | 2.1 | 3220 | –
15 | COc1ccc(-c2ccc(Cn3c(CC(C)(C)C(=O)O)c(SC(C)(C)C)c4cc(OCc5ccc(C(N)=O)cn5)ccc43)cc2)cn1 | 3270 | 229 | 39000 | –
16 | COc1ccc(-c2ccc(Cn3c(CC(C)(C)C(=O)O)c(SC(C)(C)C)c4cc(OCc5ncccc5C)ccc43)cc2)cn1 | 17.4 | 1.1 | 1290 | –
17 | COc1ccc(-c2ccc(Cn3c(CC(C)(C)C(=O)O)c(SC(C)(C)C)c4cc(OCc5cc(C)nn5C)ccc43)cc2)cn1 | 2470 | 19.7 | 16600 | –
18 | COc1ccc(-c2ccc(Cn3c(CC(C)(C)C(=O)O)c(SC(C)(C)C)c4cc(OCc5ncc(C)cc5C)ccc43)cc2)cn1 | 59.3 | 1.2 | 1790 | –
19 | COc1ccc(-c2ccc(Cn3c(CC(C)(C)C(=O)O)c(SC(C)(C)C)c4cc(OCc5ccc(Cl)cn5)ccc43)cc2)cn1 | 26.5 | 0.7 | 1160 | –
20 | COc1ccc(-c2ccc(Cn3c(CC(C)(C)C(=O)O)c(SC(C)(C)C)c4cc(OCc5cc(C)ccn5)ccc43)cc2)cn1 | 21.8 | 1.8 | 3300 | –
